Where two headings read alike, the source gives them in different places.
Experiments:
[1] = molecular target: T1, purified human topoisomerase I (Homo sapiens, UniProt P11387); assay: Topoisomerase I activity (in vitro): compound-induced, topoisomerase I-mediated single strand breaks in PM2 DNA; assay type: biochemical; settings: 30 minutes at 37° C., agarose gel densitometry, read-out: EC50 (median effective concentration for inducing topoisomerase I-mediated single strand breaks in DNA)
T1 construct: purchased Topogen
T1 sequence (P11387 1-765): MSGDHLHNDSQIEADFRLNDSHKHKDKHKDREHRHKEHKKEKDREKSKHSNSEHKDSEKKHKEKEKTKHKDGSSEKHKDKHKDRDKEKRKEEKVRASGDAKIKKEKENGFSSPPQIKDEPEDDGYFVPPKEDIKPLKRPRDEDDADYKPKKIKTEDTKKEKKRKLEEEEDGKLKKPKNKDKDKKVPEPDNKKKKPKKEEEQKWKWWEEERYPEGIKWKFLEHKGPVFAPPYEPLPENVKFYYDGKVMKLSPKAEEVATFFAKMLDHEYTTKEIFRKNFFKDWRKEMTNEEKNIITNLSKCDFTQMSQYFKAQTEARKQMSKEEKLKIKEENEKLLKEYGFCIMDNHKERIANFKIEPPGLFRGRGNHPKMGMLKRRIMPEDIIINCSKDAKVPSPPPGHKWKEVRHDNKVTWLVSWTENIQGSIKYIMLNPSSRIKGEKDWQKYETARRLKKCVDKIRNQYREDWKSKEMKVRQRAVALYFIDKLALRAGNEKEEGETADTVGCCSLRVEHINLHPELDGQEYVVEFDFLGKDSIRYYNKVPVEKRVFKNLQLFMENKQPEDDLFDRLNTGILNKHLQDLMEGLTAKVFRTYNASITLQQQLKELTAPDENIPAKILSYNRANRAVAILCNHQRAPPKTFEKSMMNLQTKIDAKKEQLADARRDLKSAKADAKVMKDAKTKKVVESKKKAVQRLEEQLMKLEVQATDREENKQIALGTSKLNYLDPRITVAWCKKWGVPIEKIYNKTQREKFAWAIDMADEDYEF
Procedure: Topoisomerase I Activity (In Vitro)
Topoisomerase I activity was measured as described below: The procedure for assaying compound-induced, topoisomerase I-mediated single strand breaks in DNA was essentially that described by Hsiang, et al., (J. Biol Chem. 1985, 260, 14873-14878). Samples dissolved in 100% DMSO as either 10 μM or 10 mg/ml solutions, unless otherwise stated, were diluted in Tris-EDTA buffer. Marine bacteriophage PM2 DNA (Boehringer Mannheim) was also diluted in Tris-EDTA buffer to a concentration of 0.02 μg/μl. Different dilutions of the compound being evaluated were mixed with diluted DNA and this mixture was added to 1000 unit (one unit of enzyme activity is defined as the amount capable of relaxing 100 ng of supercoiled DNA in approximately 30 minutes at 37° C.) aliquots of purified human topoisomerase I (Topogen) in 2× reaction buffer to start the reaction. The compound-DNA-enzyme mixture was incubated for 30 minutes at 37° C. before stopping the reaction with warm stop buffer containing sodium dodecyl sulfate and proteinase K (Sigma). These mixtures were allowed to incubate at 37° C. for another 10 minutes, at which time the mixtures were removed from the waterbath and extracted with a 24:1 mixture of chloroform/isoamyl alcohol. Following centrifugation, aliquots of the aqueous phases were placed in wells of a 0.9% agarose (SeaKem) gel in Tris-borate buffer containing 0.5 μg/ml of ethidium bromide and subjected to electrophoresis for 15 hours to separate the different topological isomers and nicked and broken DNAs. After destaining the gel in water, the ethidium bromide stained DNA reaction products were visualized by exposing the gel to UV irradiation. Negatives of the photographs of the irradiated gels were scanned with a densitometer and areas under the peaks were calculated in order to obtain percent single strand DNA break formation for each sample. A median effective concentration (EC50) was obtained for each compound by interpolation between points of the resulting dose-effect curve which defines the potency of the compound for its effect in inducing topoisomerase I-mediated single strand breaks in DNA.
The topoisomerase I activity for certain compounds of the present invention is shown below in Table I.

murine P388 cell line = assay: In vitro cell-based cytotoxicity: proliferation inhibition, XTT tetrazolium assay; settings: P388 cells, 72 h at 37° C., XTT absorbance at 450 nm, read-out: IC50 (drug concentration required to inhibit cell proliferation to 50% of untreated control cells)
Procedure: In Vitro Cell-Based Cytotoxicity Activity
The proliferation inhibition activity against murine P388 cell line was measured as follows. Evaluation of a soluble tetrazolium/formazan assay for cell growth and drug sensitivity in culture, using human and other tumor cell lines, was done according to the procedure described in Cancer Res. 1988, 48, 4827-4833. Cells were plated at 4000 cells/well in 96 well microtiter plates and 24 h later drugs were added and serially diluted. The cells were incubated at 37° C. for 72 h, at which time a tetrazolium dye, XTT, containing phenazine methosulfate was added. A dehydrogenase enzyme in live cells reduced the XTT to a form that absorbs light at 450 nm, which could be quantitated spectrophotometrically. The greater the absorbance the greater the number of live cells. The results are expressed as an IC50, which is the drug concentration required to inhibit cell proliferation (i.e., absorbance at 450 nm) to 50% of that of untreated control cells.

EC50 [1] [µM] | melting point | Molecule | IC50 (murine P388 cell line; Mus musculus) [µM] | IC50 (murine P388 cell line) [µM]
0.45 | > 300 °C | O=C1NC(=O)c2c1c1c3ccc(F)cc3n3c1c1c2c2ccc(F)cc2n1C1OC(C3)C(O)C(O)C1O [Example 10, 2,10-Difluoro-12,13-[1,6-β-D-glucopyranosyl]-6,7,12,13-tetrahydro(5H)indolo-[2,3-a]pyrrolo[3,4-c]carbazole-5,7-dione] | 0.13 | 
5.6 |  | O=C1NC(=O)c2c1c1c3cc(F)c(F)cc3n3c1c1c2c2cc(F)c(F)cc2n1C1OC(CC(O)C1O)C3 [Example 4, 2,3,9,10-Tetrafluoro-12,13-[1,6-(4-deoxy-β-D-glucopyranosyl)]-6,7,12,13-tetrahydro(5H)indolo[2,3-a]pyrrolo[3,4-c]carbazole-5,7-dione] | 0.07 | 
2.9 |  | O=C1NC(=O)c2c1c1c3cc(F)c(F)cc3n3c1c1c2c2cc(F)c(F)cc2n1[C@@H]1OC(CF)[C@H]3C(O)C1O (stereo partly drawn) [Example 16, 2,3,9,10-Tetrafluoro-12,13-[1,4-(6-deoxy-6-fluoro-β-D-galactopyranosyl)]-6,7,12,13-tetrahydro(5H)indolo[2,3-a]pyrrolo[3,4-c]carbazole-5,7-dione] | 3.3 | 
> 100 |  | COC1C2Cn3c4c(Cl)cccc4c4c5c(c6c7cccc(Cl)c7n(c6c43)C(O2)C(O)C1O)C(=O)NC5=O [Example 7, 1,11-Dichloro-12,13-[1,6-(4-O-methyl-β-D-glucopyranosyl)]-6,7,12,13-tetrahydro(5H)indolo[2,3-a]pyrrolo[3,4-c]carbazole-5,7-dione] | 0.46 | 
0.62 |  | O=C1NC(=O)c2c1c1c3cc(F)c(F)cc3n3c1c1c2c2cc(F)c(F)cc2n1C1OC(C3)C(F)C(O)C1O [Example 8, 2,3,9,10-Tetrafluoro-12,13-[1,6-(4-deoxy-4-fluoro-β-D-glucopyranosyl)]-6,7,12,13-tetrahydro(5H)indolo[2,3-a]pyrrolo[3,4-c]carbazole-5,7-dione] | 0.026 | 
3.3 | 315 °C (dec.) | O=C1NC(=O)c2c1c1c3ccc(F)cc3n3c1c1c2c2ccc(F)cc2n1C1OC(C3)C(F)C(O)C1O [Example 11, 2,10-Difluoro-12,13-[1,6-(4-deoxy-4-fluoro-β-D-glucopyranosyl)]-6,7,12,13-tetrahydro(5H)indolo[2,3-a]pyrrolo[3,4-c]carbazole-5,7-dione] | 0.021 | 
0.29 |  | C[C@]12O[C@H]([C@H](O)[C@@H](O)[C@@H]1O)n1c3cc(F)c(F)cc3c3c4c(c5c6cc(F)c(F)cc6n2c5c31)C(=O)NC4=O [Example 21] | 0.14 | 
> 100 |  | O=C1NC(=O)c2c1c1c3cc(F)c(F)cc3n3c1c1c2c2cc(F)c(F)cc2n1C1OC(C3)C(F)(F)C(O)C1O [Example 9, 2,3,9,10-Tetrafluoro-12,13-[1,6-(4-deoxy-4,4-difluoro-β-D-glucopyranosyl)]-6,7,12,13-tetrahydro(5H)indolo[2,3-a]pyrrolo[3,4-c]carbazole-5,7-dione] | 0.021 | 
0.11 |  | O=C1NC(=O)c2c1c1c3cc(F)ccc3n3c1c1c2c2cc(F)ccc2n1[C@@H]1O[C@H](CO)[C@H](O)[C@H](O)[C@@H]13 [Example 25, 3,9-Difluoro-12,13-[1,2-β-D-galactopyranosyl]-6,7,12,13-tetrahydro(5H)-indolo-[2,3-a]pyrrolo[3,4-c]carbazole-5,7-dione] | 0.0142 | 
0.32 |  | O=C1NC(=O)c2c1c1c3cc(F)c(F)cc3n3c1c1c2c2cc(F)c(F)cc2n1[C@@]1(CO)O[C@@H]3[C@H](O)[C@@H](O)[C@@H]1O [Example 22, 2,3,9,10-Tetrafluoro-12,13-(1,5-β-D-glucopyranosyl)-6,7,12,13-tetrahydro(5H)indolo[2,3-a]pyrrolo[3,4-c]carbazole-5,7-dione] | 0.086 | 
0.028 |  | O=C1NC(=O)c2c1c1c3cc(F)ccc3n3c1c1c2c2cc(F)ccc2n1C1OC(C3)C(F)C(O)C1O [Example 26, 3,9-Difluoro-12,13-[1,6-(4-deoxy-4-fluoro-β-D-glucopyranosyl)]-6,7,12,13-tetrahydro(5H)indolo[2,3-a]pyrrolo[3,4-c]carbazole-5,7-dione] | 0.003 | 
0.036 |  | O=C1NC(=O)c2c1c1c3cc(F)ccc3n3c1c1c2c2cc(F)ccc2n1C1OC(C3)C(O)C(O)C1O (centres unmarked) [Example 27] | 0.0511 | 
0.68 |  | O=C1NC(=O)c2c1c1c3cc(F)c(F)cc3n3c1c1c2c2cc(F)c(F)cc2n1C1OC(C3)C(O)CC1O [Example 5, 2,3,9,10-Tetrafluoro-12,13-[1,6-(3-deoxy-β-D-glucopyranosyl)]-6,7,12,13-tetrahydro(5H)indolo[2,3-a]pyrrolo[3,4-c]carbazole-5,7-dione] | 0.023 | 
0.12 |  | O=C1NC(=O)c2c1c1c3cc(F)ccc3n3c1c1c2c2cc(F)ccc2n1[C@@H]1O[C@H](CO)[C@@H](O)[C@H](O)[C@@H]13 [Example 28, 3,9-Difluoro-12,13-[1,2-β-D-glucopyranosyl]-6,7,12,13-tetrahydro(5H)-indolo-[2,3-a]pyrrolo[3,4-c]carbazole-5,7-dione] | 0.347 | 
> 100 |  | O=C1NC(=O)c2c1c1c3cc(F)c(F)cc3n3c1c1c2c2cc(F)c(F)cc2n1C1OC(C3)C(O)C(F)C1O [Example 6, 2,3,9,10-Tetrafluoro-12,13-[1,6-(3-deoxy-3-fluoro-β-D-glucopyranosyl)]-6,7,12,13-tetrahydro(5H)indolo[2,3-a]pyrrolo[3,4-c]carbazole-5,7-dione] | 7.7 | 
8.2 |  | O=C1NC(=O)c2c1c1c3cc(F)c(F)cc3n3c1c1c2c2cc(F)c(F)cc2n1[C@@H]1OC(CO)[C@H]3C(O)C1O (stereo partly drawn) [Example 13, 2,3,9,10-Tetrafluoro-12,13-(1,4-β-D-galactopyranosyl)-6,7,12,13-tetrahydro(5H)indolo[2,3-a]pyrrolo[3,4-c]carbazole-5,7-dione] | 2.8 | 
0.35 |  | O=C1NC(=O)c2c1c1c3cc(F)c(F)cc3n3c1c1c2c2cc(F)c(F)cc2n1C1OC(C3)C(O)C(O)C1O [Example 3, 2,3,9,10-Tetrafluoro-12,13-(1,6-β-D-glucopyranosyl)-6,7,12,13-tetrahydro(5H)indolo[2,3-a]pyrrolo[3,4-c]carbazole-5,7-dione] | 0.05 | 

Molecule | EC50 [1] [µM] | melting point | IC50 (murine P388 cell line; Mus musculus) [µM] | IC50 (murine P388 cell line) [µM]
2,3,9,10-Tetrafluoro-12,13-[1,5-(6-deoxy-β-D-glucopyranosyl)]-6,7,12,13-tetrahydro(5H)indolo[2,3-a]pyrrolo[3,4-c]carbazole-5-one and 2,3,9,10-Tetrafluoro-12,13-[1,5-(6-deoxy-β-D-glucopyranosyl)]-6,7,12,13-tetrahydro(5H)-indolo[2,3-a]pyrrolo[3,4-c]carbazole-7-one [Example 23] | 2.1 |  |  | 0.24

Reference: US6677450B2, “Topoisomerase inhibitors” (Bristol-Myers Squibb Company, priority 2000, dated 2004)
